Laboratory results from patent US20260240846A1, “ZAK ALPHA KINASE (MAP3K20) INHIBITORS FOR USE IN THE TREATMENT OF ANEMIA” (UNIVERSIDAD DE MURCIA, priority 2023, published 2026).

Legend:
[1] = test system: K562 cells; test: Erythroid differentiation assay in K562 cells (hemin; hemoglobin accumulation, western blot); format: cell-based, human
Protocol: FIG. 1. ZAKα/P38 signaling pathway is activated in K562 after erythroid differentiation and its inhibition facilitates terminal erythroid differentiation. K562 cells were pre-treated with 0.1 μM nilotinib (Nil) (A, C, D), 1 μM anisomycin (B) and/or the indicated concentrations of the […] CX-5461 for 24 h, and then differentiated with 50 μM hemin for another 24 h. Hemoglobin accumulation (A, B, D) and NLRP1, phosphorylated P38, GATA1, ZAKα and ACTB (A-C) amounts were then evaluated by western blot. Immunoblots are representative of 3 independent experiments. #1, ACTB; #2, GATA1.
FIG. 2. The ZAKα/P38 signaling pathways is activated in K562 after erythroid differentiation. K562 cells were pre-treated with 0.1 μM nilotinib for 24 h and then differentiated with 50 μM hemin for the indicated times. The amounts of NLRP1, GATA1, phosphorylated P38, total ZAKα, phosphorylated ZAKα (Phos-tag) and ACTB were then evaluated by western blot.
(§1) FIG. 10. Imatinib and dasatinib promote erythropoiesis in human and zebrafish. (A) K562 cells were pretreated with the indicated concentrations of nilotinib, imatinib or dasatinib for 24 h and then differentiated with 50 μM hemin for 24 h. The amounts of NLRP1, GATA1, phosphorylated P38, total ZAKα and ACTB were then evaluated by western blot. (B) Zebrafish larvae were treated from 1 to 2 dpf with the indicated concentrations of nilotinib, imatinib or dasatinib. Representative images and number of neutrophils in larvae of 2 dpf treated by bath immersion with the indicated concentrations of imatinib and dasatinib. Each dot represents one individual and the mean±SEM for each group is also shown. P values were calculated by one-way ANOVA and Tukey's multiple range test. n.s., non-significant. ***P<0.001; ****P<0.0001.
(§2) FIG. 11. Ponatinib and bosutinib promote erythropoiesis in human and zebrafish. (A) K562 cells were pretreated with the indicated concentrations of nilotinib, ponatinib and bosutinib for 24 h and then differentiated with 50 μM hemin for the indicated times. The amounts of NLRP1, total ZAKα, GATA1, phosphorylated P38 and ACTB were then evaluated by western blot. (B) Number of neutrophils in larvae of 2 dpf treated by bath immersion with the indicated concentrations of ponatinib and bosutinib. Each dot represents one individual and the mean±SEM for each group is also shown. P values were calculated by one-way ANOVA and Tukey's multiple range test. n.s., non-significant, *P<0.05. **P<0.01. ***P<0.001.
K562 cells (CRL-3343; American Type Culture Collection) were maintained in RPMI culture medium supplemented with 10% fetal calf serum (FCS), 2 mM Glutamine, and 1% penicillin-streptomycin (Life Technologies). Cells were maintained and subcultured before confluence every 72 h. For differentiation, cells were treated with 50 μM hemin (#16009-13-5, Sigma-Aldrich) in the presence of 0.1% DMSO alone or with the caspase-1 inhibitor VX-765 (100 μM), the tyrosine kinase inhibitor nilotinib (0.1 μM), the RNA polymerase I inhibitor CX-5461 (200 nM, 1 μM and 10 μM) (all from MedChemExpress). Cells were collected at different time points (0, 24, 48 hours post-hemin addition), centrifuged, washed twice with PBS, and stored at −80° C. for further analysis.
Cells were lysed in 50 mM Tris-HCl (pH 7.5), 150 mM NaCl, 1% (w/v) NP-40 and fresh protease inhibitor (1/20, #P8340, Sigma-Aldrich). Protein quantification was performed with the BCA kit using BSA as standard. Cell lysates ([…]) in SDS sample buffer were subjected to electrophoresis on a polyacrylamide gel and transferred to nitrocellulose membranes. The membranes were incubated for 1 h with TTBS containing 5% (w/v) skimmed dried milk powder or 2% (w/v) BSA. The membranes were immunoblotted in the same buffer 16 h at 4° C. with the different primary antibodies diluted 1/1000. The blots were then washed with TTBS and incubated for 1 h at room temperature with secondary HRP-conjugated antibodies diluted 2,500-fold in 5% (w/v) skimmed milk in TTBS. […]

[2] = test system: HSPCs from DBA patients; test: Colony assay of PBMCs from DBA patients in methylcellulose medium; format: cell-based, human; details: 2 weeks, indicated concentrations (FIG. 13A)
Protocol: FIG. 13. […] PBMCs from DBA patients were incubated for 2 weeks in human methylcellulose complete medium at 37° C. in the presence or absence of the indicated concentrations of nilotinib, imatinib, dasatinib, bosutinib and ponatinib, and the number of erythroid (A) and myeloid (B) colonies counted using standard morphological criteria. Each dot represents one patient and the means±SEM for each group is also shown.

[3] = test system: zebrafish larvae; test: Chemical treatment of zebrafish larvae by bath immersion; counting of neutrophils and erythrocytes; format: in vivo, Zebrafish (Danio rerio H.)
Protocol: FIG. 3. ZAKα regulates hematopoiesis in zebrafish through the Nlrp1 inflammasome. Number of neutrophils (B, D, H), erythrocytes (F) and macrophages (J), and caspase-1 activity (K) in 2 dpf larvae either treated from 1 to 2 dpf by bath immersion with 1 μM nilotinib and/or 100 μM anisomycin (A-D) or obtained by injecting one-cell stage embryos with standard or zaka crRNAs/Cas9 complexes (E-K). Representative images of neutrophils (A, C, G), erythrocytes (E) and macrophages (I) are also shown. Each dot represents one individual and the mean±SEM for each group is also shown. P values were calculated using one-way ANOVA and Tukey's multiple range test (B) or Student's t-test (D, F, H, J, K). n.s., non-significant; *P<0.05; **P<0.01; ***P<0.001.
FIG. 6. NLRP1 is activated by phosphorylation of the linker domain after activation of ZAKα and pharmacological inhibition of this signaling pathway promotes erythropoiesis in DBA. (A-D) Number of neutrophils (A-C), and caspase-1 activity (D) in 2 dpf larvae obtained by injection of one-cell stage embryos with human NLRP1 (wild type-WT, S107A and S107D) and treated from 1 to 2 dpf by bath immersion with 1 μM nilotinib (B-D). Representative images of neutrophils (arrows) are also shown in C. (E, F) BMMCs from a DBA patient were incubated for 2 weeks in human methylcellulose complete medium at 37° C. in the presence or absence of the indicated concentrations of nilotinib, and colonies were counted using standard morphological criteria. Each dot represents one individual and the mean±SEM for each group is also shown. P values were calculated by one-way ANOVA and Tukey's multiple range test. n.s., non-significant; *P<0.05; **P<0.01; ***P<0.001; ****P<0.0001.
as §1, §2
Zebrafish (Danio rerio H.) were obtained from the Zebrafish International Resource Center and mated, staged, raised and processed as described in The Zebarfish Book. The lines Tg(mpx:eGFP)^t114, Tg(lyz:DsRED2)^n250, Tg(mfap4:mCherry)^ump6, Tg(gata1a:DsRed)^sd2 Tg(runx1:GAL4)^utn6), Tg(UAS-E1B:NTR-mCherry) and casper (mitfa^w2/w2; mpv17^a9/a9) were previously described. spint1a^hi2217Tg/hi2217Tg was isolated from insertional mutagenesis screens. The experiments performed comply with the Guidelines of the European Union Council (Directive 2010/63/EU) and the Spanish RD 53/2013. The experiments and procedures performed were approved by the Bioethical Committees of the University of Murcia (approval number #669/2020). […]

## Cc1cnc(CNC(=O)c2c(=O)c3ccc(N4CCCN(C)CC4)nc3n3c2sc2ccccc23)cn1 [CX-5461]
[1]; CX-5461 at indicated concentrations 24 h, then 50 μM hemin 24 h, hemoglobin accumulation (FIG. 1D)
  erythroid differentiation in K562 cells: impairs erythroid differentiation

## Cc1ccc(NC(=O)c2ccc(CN3CCN(C)CC3)cc2)cc1Nc1nccc(-c2cccnc2)n1 [imatinib]
[1]; K562 cells, indicated concentrations of TKI 24 h, then 50 μM hemin, western blot (FIG. 10A, 11A)
  GATA1 protein amounts: enhancing GATA1 amount
[1]; indicated concentrations of TKI 24 h, then 50 μM hemin (FIG. 10A, 11A)
  erythroid differentiation of K562 cells: promoted erythroid differentiation of K562 cells by blocking the ZAKα/P38 axis
[2]
  defective erythropoiesis of HSPCs from DBA patients (erythroid colonies): alleviated defective erythropoiesis
[3]; bath immersion 1 to 2 dpf, imatinib 1 and 10 μM, dasatinib 0.1 and 1 μM (FIG. 10B)
  number of erythrocytes in zebrafish larvae: enhanced the number of erythrocytes

## COc1ccc(C[C@H]2NC[C@H](O)[C@H]2OC(C)=O)cc1 [anisomycin]
[3]; larvae 2 dpf, anisomycin
  neutrophil number in Nlrp1- and Zaka-deficient larvae: failed to increase neutrophil number
[3]; wild type larvae 2 dpf, bath immersion 1 to 2 dpf, 1 μM nilotinib, 100 μM anisomycin
  neutrophil number: caused neutrophilia
